# Measurements: PubChem BioAssay AID1963827 (Molecular Pharmacology Branch, DTP, NCI, 2024)
# Test system: 994946-033-R-J1-PDC complex spheroid viability
# Test: Anticancer human tumor 994946-033-R-J1-PDC patient-derived melanoma cell line growth inhibition [POLQ]
# Conditions: for IC50: curve of first compound; for viability, T/C: stronger effect = lower value
# Summary of the method: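 PDC + HUVEC + MSC complex spheroids; POLQ inhibitors ± partner drugs; top conc. at/near clinical Cmax, else 10 microM (SN-38 1 microM), half-log dilutions; 37 degrees C, 5% CO2.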
# [1] = second compound 0.0316 µM, first compound 0.0316 µM
# [2] = second compound 0.0316 µM, first compound 0.1 µM
# [3] = second compound 0.0316 µM, first compound 0.316 µM
# [4] = second compound 0.0316 µM, first compound 1 µM
# [5] = second compound 0.0316 µM, first compound 3.16 µM
# [6] = second compound 0.0316 µM, first compound 10 µM
# [7] = second compound 0.1 µM, first compound 0.0316 µM
# [8] = second compound 0.1 µM, first compound 0.1 µM
# [9] = second compound 0.1 µM, first compound 0.316 µM
# [10] = second compound 0.1 µM, first compound 1 µM
# [11] = second compound 0.1 µM, first compound 3.16 µM
# [12] = second compound 0.1 µM, first compound 10 µM
# [13] = second compound 0.316 µM, first compound 0.0316 µM
# [14] = second compound 0.316 µM, first compound 0.1 µM
# [15] = second compound 0.316 µM, first compound 0.316 µM
# [16] = second compound 0.316 µM, first compound 1 µM
# [17] = second compound 0.316 µM, first compound 3.16 µM
# [18] = second compound 0.316 µM, first compound 10 µM
# [19] = second compound 1 µM, first compound 0.0316 µM
# [20] = second compound 1 µM, first compound 0.1 µM
# [21] = second compound 1 µM, first compound 0.316 µM
# [22] = second compound 1 µM, first compound 1 µM
# [23] = second compound 1 µM, first compound 3.16 µM
# [24] = second compound 1 µM, first compound 10 µM
# [25] = second compound 3.16 µM, first compound 0.0316 µM
# [26] = second compound 3.16 µM, first compound 0.1 µM
# [27] = second compound 3.16 µM, first compound 0.316 µM
# [28] = second compound 3.16 µM, first compound 1 µM
# [29] = second compound 3.16 µM, first compound 3.16 µM
# [30] = second compound 3.16 µM, first compound 10 µM
# [31] = second compound 10 µM, first compound 0.0316 µM
# [32] = second compound 10 µM, first compound 0.1 µM
# [33] = second compound 10 µM, first compound 0.316 µM
# [34] = second compound 10 µM, first compound 1 µM
# [35] = second compound 10 µM, first compound 3.16 µM
# [36] = second compound 10 µM, first compound 10 µM
# 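Also: spheroids exposed to drugs for 7 days.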
# 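For viability, T/C in this document: 100% = DMSO vehicle treated spheroids.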
compound,measurement,setting,value
CCc1cc2c(N3CCc4c(cc(Cn5ccnc5)cc4-c4cn(C)nc4C(F)(F)F)C3=O)ccnc2c(OC)n1 + COC1C(OC(N)=O)C(O)C(Oc2ccc3c(O)c(NC(=O)c4ccc(O)c(CC=C(C)C)c4)c(=O)oc3c2C)OC1(C)C,IC50,second compound 0.0316 µM,> 10000 nM
same,IC50,second compound 0.1 µM,> 10000 nM
same,IC50,second compound 0.316 µM,> 10000 nM
same,IC50,second compound 1 µM,> 10000 nM
same,IC50,second compound 3.16 µM,> 10000 nM
same,IC50,second compound 10 µM,> 10000 nM
same,"viability, T/C",[1],98.9%
same,"viability, T/C",[2],72.2%
same,"viability, T/C",[3],61.1%
same,"viability, T/C",[4],73.3%
same,"viability, T/C",[5],63.3%
same,"viability, T/C",[6],70%
same,"viability, T/C",[7],92.7%
same,"viability, T/C",[8],77.8%
same,"viability, T/C",[9],96.2%
same,"viability, T/C",[10],78.8%
same,"viability, T/C",[11],61.2%
same,"viability, T/C",[12],81.2%
same,"viability, T/C",[13],100%
same,"viability, T/C",[14],98.3%
same,"viability, T/C",[15],70.6%
same,"viability, T/C",[16],66.1%
same,"viability, T/C",[17],86.4%
same,"viability, T/C",[18],63.7%
same,"viability, T/C",[19],91.6%
same,"viability, T/C",[20],75.7%
same,"viability, T/C",[21],94.1%
same,"viability, T/C",[22],85.3%
same,"viability, T/C",[23],68.1%
same,"viability, T/C",[24],69%
same,"viability, T/C",[25],91.9%
same,"viability, T/C",[26],77.3%
same,"viability, T/C",[27],81.7%
same,"viability, T/C",[28],73.8%
same,"viability, T/C",[29],74.3%
same,"viability, T/C",[30],54%
same,"viability, T/C",[31],91.7%
same,"viability, T/C",[32],77.6%
same,"viability, T/C",[33],67.1%
same,"viability, T/C",[34],81.2%
same,"viability, T/C",[35],64.3%
same,"viability, T/C",[36],58.9%
CC[C@@]1(O)C(=O)OCc2c1cc1n(c2=O)Cc2cc3c(CN(C)C)c(O)ccc3nc2-1 + Cc1cccc(N(C)C(=O)C2C(O)CCN2c2nc(C)cc(C(F)(F)F)c2C#N)c1,IC50,second compound 0.0316 µM,19.1 nM
same,IC50,second compound 0.1 µM,19.1 nM
same,IC50,second compound 0.316 µM,20.1 nM
same,IC50,second compound 1 µM,11.2 nM
same,IC50,second compound 3.16 µM,18.3 nM
same,IC50,second compound 10 µM,21.1 nM
same,"viability, T/C","second compound 0.0316 µM, first compound 0.000316 µM",80.5%
same,"viability, T/C","second compound 0.0316 µM, first compound 0.001 µM",94%
same,"viability, T/C","second compound 0.0316 µM, first compound 0.00316 µM",110%
same,"viability, T/C","second compound 0.0316 µM, first compound 0.01 µM",73%
same,"viability, T/C",[1],30.9%
same,"viability, T/C",[2],8.8%
same,"viability, T/C","second compound 0.1 µM, first compound 0.000316 µM",113%
same,"viability, T/C","second compound 0.1 µM, first compound 0.001 µM",78.6%
same,"viability, T/C","second compound 0.1 µM, first compound 0.00316 µM",87%
same,"viability, T/C","second compound 0.1 µM, first compound 0.01 µM",78%
same,"viability, T/C",[7],28.5%
same,"viability, T/C",[8],9.63%
same,"viability, T/C","second compound 0.316 µM, first compound 0.000316 µM",83.4%
same,"viability, T/C","second compound 0.316 µM, first compound 0.001 µM",106%
same,"viability, T/C","second compound 0.316 µM, first compound 0.00316 µM",94.8%
same,"viability, T/C","second compound 0.316 µM, first compound 0.01 µM",82%
same,"viability, T/C",[13],29.2%
same,"viability, T/C",[14],12.1%
same,"viability, T/C","second compound 1 µM, first compound 0.000316 µM",108%
same,"viability, T/C","second compound 1 µM, first compound 0.001 µM",71.3%
same,"viability, T/C","second compound 1 µM, first compound 0.00316 µM",79.3%
same,"viability, T/C","second compound 1 µM, first compound 0.01 µM",57.5%
same,"viability, T/C",[19],26.9%
same,"viability, T/C",[20],9.85%
same,"viability, T/C","second compound 3.16 µM, first compound 0.000316 µM",96.1%
same,"viability, T/C","second compound 3.16 µM, first compound 0.001 µM",98.7%
same,"viability, T/C","second compound 3.16 µM, first compound 0.00316 µM",77%
same,"viability, T/C","second compound 3.16 µM, first compound 0.01 µM",71%
same,"viability, T/C",[25],33.4%
same,"viability, T/C",[26],10.7%
same,"viability, T/C","second compound 10 µM, first compound 0.000316 µM",113%
same,"viability, T/C","second compound 10 µM, first compound 0.001 µM",99.6%
same,"viability, T/C","second compound 10 µM, first compound 0.00316 µM",107%
same,"viability, T/C","second compound 10 µM, first compound 0.01 µM",81.8%
same,"viability, T/C",[31],32.7%
same,"viability, T/C",[32],10.4%
CCc1cc2c(N3CCc4c(cc(Cn5ccnc5)cc4-c4cn(C)nc4C(F)(F)F)C3=O)ccnc2c(OC)n1 + Nc1ccc(C#CCN(C(=O)Cc2ncc(C(F)(F)F)cc2C(F)(F)F)c2ccc(F)cc2)nn1,IC50,second compound 0.0316 µM,> 10000 nM
same,IC50,second compound 0.1 µM,> 10000 nM
same,IC50,second compound 0.316 µM,> 10000 nM
same,IC50,second compound 1 µM,> 10000 nM
same,IC50,second compound 3.16 µM,> 10000 nM
same,IC50,second compound 10 µM,> 10000 nM
same,"viability, T/C",[1],51.5%
same,"viability, T/C",[2],79.4%
same,"viability, T/C",[3],82%
same,"viability, T/C",[4],88.2%
same,"viability, T/C",[5],79.6%
same,"viability, T/C",[6],79%
same,"viability, T/C",[7],101%
same,"viability, T/C",[8],87.7%
same,"viability, T/C",[9],88.6%
same,"viability, T/C",[10],76.8%
same,"viability, T/C",[11],73.8%
same,"viability, T/C",[12],81.4%
same,"viability, T/C",[13],89.3%
same,"viability, T/C",[14],97.6%
same,"viability, T/C",[15],78.4%
same,"viability, T/C",[16],70.6%
same,"viability, T/C",[17],79.8%
same,"viability, T/C",[18],63.9%
same,"viability, T/C",[19],98.9%
same,"viability, T/C",[20],62.2%
same,"viability, T/C",[21],85.1%
same,"viability, T/C",[22],75%
same,"viability, T/C",[23],86.7%
same,"viability, T/C",[24],87.4%
same,"viability, T/C",[25],75.9%
same,"viability, T/C",[26],78%
same,"viability, T/C",[27],66.9%
same,"viability, T/C",[28],79.4%
same,"viability, T/C",[29],89.2%
same,"viability, T/C",[30],66.7%
same,"viability, T/C",[31],101%
same,"viability, T/C",[32],98.2%
same,"viability, T/C",[33],102%
same,"viability, T/C",[34],89.8%
same,"viability, T/C",[35],80.8%
same,"viability, T/C",[36],70.8%
Nc1ccn(C2OC(CO)C(O)C2(F)F)c(=O)n1 (stereo not drawn) + Cc1cccc(N(C)C(=O)C2C(O)CCN2c2nc(C)cc(C(F)(F)F)c2C#N)c1,IC50,second compound 0.0316 µM,< 31.6 nM
same,IC50,second compound 0.1 µM,< 31.6 nM
same,IC50,second compound 0.316 µM,< 31.6 nM
same,IC50,second compound 1 µM,< 31.6 nM
same,IC50,second compound 3.16 µM,< 31.6 nM
same,IC50,second compound 10 µM,< 31.6 nM
same,"viability, T/C",[1],26.7%
same,"viability, T/C",[2],6.28%
same,"viability, T/C",[3],4.88%
same,"viability, T/C",[4],6.63%
same,"viability, T/C",[5],3.54%
same,"viability, T/C",[6],2.78%
same,"viability, T/C",[7],49.3%
same,"viability, T/C",[8],5.24%
same,"viability, T/C",[9],5.13%
same,"viability, T/C",[10],4.71%
same,"viability, T/C",[11],4.54%
same,"viability, T/C",[12],2.88%
same,"viability, T/C",[13],24.7%
same,"viability, T/C",[14],5.51%
same,"viability, T/C",[15],5.07%
same,"viability, T/C",[16],4.92%
same,"viability, T/C",[17],4.06%
same,"viability, T/C",[18],1.82%
same,"viability, T/C",[19],23.1%
same,"viability, T/C",[20],7.5%
same,"viability, T/C",[21],4.98%
same,"viability, T/C",[22],4.8%
same,"viability, T/C",[23],4.33%
same,"viability, T/C",[24],2.48%
same,"viability, T/C",[25],39.7%
same,"viability, T/C",[26],6.77%
same,"viability, T/C",[27],4.52%
same,"viability, T/C",[28],5.28%
same,"viability, T/C",[29],4.61%
same,"viability, T/C",[30],2.97%
same,"viability, T/C",[31],48.6%
same,"viability, T/C",[32],13.3%
same,"viability, T/C",[33],6.55%
same,"viability, T/C",[34],5.55%
same,"viability, T/C",[35],5.13%
same,"viability, T/C",[36],1.86%
